Measured values as given in DBAASP.
Values after ≈ are worked out from the molar mass of the structure shown.

What was measured:
Assay in all cases: ≥ marks a high value that may be exact or a test limit, other limits are often not marked, values filed in µg/mL are converted to µM
[1] = system: Staphylococcus aureus NCTC 8325
[2] = system: Candida albicans ATCC 90028
[3] = system: Escherichia coli ATCC 25922
[4] = system: Pseudomonas aeruginosa ATCC 27853
Acinetobacter baumannii = system: Acinetobacter baumannii
Staphylococcus aureus MR = system: Staphylococcus aureus MR
[5] = system: Staphylococcus aureus ATCC 25923
[6] = system: Acinetobacter baumannii ATCC 19606
[7] = system: Staphylococcus aureus ATCC 29213
[8] = system: Staphylococcus aureus ATCC 2592
[9] = system: Candida albicans ATCC 2002
Bacillus subtilis = system: Bacillus subtilis
[10] = system: Enterococcus faecalis ATCC 29212
[11] = system: Staphylococcus epidermidis ATCC 12228
[12] = system: Salmonella enterica subsp. enterica serovar Typhimurium C77-31
Escherichia coli UB1005 = system: Escherichia coli UB1005
[13] = system: Salmonella enterica subsp. enterica serovar Typhimurium ATCC 14028
Escherichia coli = system: Escherichia coli
[14] = system: Streptococcus pyogenes ATCC 19615
[15] = system: Klebsiella pneumoniae ATCC 13883

SMILES: CC[C@H](C)[C@H](NC(=O)[C@H](CC(C)C)NC(=O)[C@H](CCCCN)NC(=O)[C@H](CO)NC(=O)[C@@H](NC(=O)[C@H](C)NC(=O)[C@H](CCCCN)NC(=O)[C@@H](NC(=O)[C@H](C)NC(=O)[C@H](Cc1cnc[nH]1)NC(=O)[C@@H]1CCCN1C(=O)[C@@H](NC(=O)[C@H](CC(C)C)NC(=O)[C@@H]1CCCN1C(=O)CNC(=O)[C@@H](NC(=O)[C@H](Cc1ccc(O)cc1)NC(=O)[C@H](CCCCN)NC(=O)[C@H](CCSC)NC(=O)[C@H](Cc1ccccc1)NC(=O)CN)[C@@H](C)CC)[C@@H](C)CC)C(C)C)[C@@H](C)CC)C(=O)O [GFMKYIGPLIPHAVKAISKLI]
- MIC [1]: ≥ 50 µM
- MIC [2]: ≥ 100 µM
- MIC [3]: 25 µM (≈ 57.4 µg/mL)

SMILES: CC[C@H](C)[C@H](NC(=O)[C@H](CCCN=C(N)N)NC(=O)[C@H](CCCCN)NC(=O)[C@@H](NC(=O)[C@@H](NC(=O)[C@H](CCCN=C(N)N)NC(=O)[C@@H](N)CCCCN)[C@@H](C)CC)C(C)C)C(=O)N[C@@H](CCCCN)C(=O)N[C@@H](CCCCN)C(=O)N[C@@H](Cc1ccccc1)C(=O)N[C@@H](CC(C)C)C(=O)N[C@@H](CCCN=C(N)N)C(=O)O [KRIVKRIKKFLR]
- MIC [4]: 1.25 µM (≈ 1.98 µg/mL)
- MIC (Acinetobacter baumannii): ≥ 202 µM
- MIC [2]: 2.5 µM (≈ 3.96 µg/mL)
- MIC (Staphylococcus aureus MR): ≥ 202 µM
- MIC [3]: 1.25 µM (≈ 1.98 µg/mL)
- MIC [5]: ≥ 202 µM
- MIC [6]: ≥ 101 µM
- MIC [7]: 2.5 µM (≈ 3.96 µg/mL)

SMILES: CC[C@H](C)[C@@H]1NC(=O)[C@H](CO)NC(=O)[C@H](CCCCN)NC(=O)[C@H]([C@@H](C)O)NC(=O)[C@H](Cc2c[nH]c3ccccc23)NC(=O)[C@@H](NC(=O)CNC(=O)[C@H](CCCCN)NC(=O)[C@@H](N)CC(C)C)CSSC[C@@H](C(=O)N[C@@H](Cc2ccccc2)C(=O)O)NC(=O)[C@@H]2CCCN2C(=O)[C@H](CCCCN)NC(=O)[C@@H]2CCCN2C(=O)[C@@H]2CCCN2C1=O [LKGCWTKSIPPKPCF]
- MIC [8]: 1.03 µM (≈ 1.76 µg/mL)
- MIC [9]: 2.75 µM (≈ 4.68 µg/mL)
- MIC [3]: 1.37 µM (≈ 2.34 µg/mL)
- MIC (Bacillus subtilis): 1.37 µM (≈ 2.34 µg/mL)

SMILES: CC[C@H](C)[C@H](NC(=O)[C@H](CCCCN)NC(=O)[C@H](Cc1c[nH]c2ccccc12)NC(=O)[C@H](CC(C)C)NC(=O)[C@H](CCCN=C(N)N)NC(=O)[C@H](CCCCN)NC(=O)[C@H](CCCN=C(N)N)NC(=O)[C@@H](NC(=O)[C@H](CCCCN)NC(=O)[C@H](Cc1c[nH]c2ccccc12)NC(=O)[C@H](CCCN=C(N)N)NC(=O)[C@H](CC(C)C)NC(=O)[C@H](CCCN=C(N)N)NC(=O)[C@H](CCCN=C(N)N)NC(=O)[C@H](Cc1ccccc1)NC(=O)[C@@H](N)CCCN=C(N)N)[C@@H](C)O)C(N)=O [RFRRLRWKTRKRLWKI]
- MIC [10]: 8 µM (≈ 18.4 µg/mL)
- MIC [11]: 32 µM (≈ 73.6 µg/mL)
- MIC [12]: 16 µM (≈ 36.8 µg/mL)
- MIC (Escherichia coli UB1005): 16 µM (≈ 36.8 µg/mL)

SMILES: CC[C@H](C)[C@H](NC(=O)CNC(=O)[C@H](CCC(N)=O)NC(=O)[C@H](CC(C)C)NC(=O)[C@H](CC(N)=O)NC(=O)[C@H](CC(C)C)NC(=O)[C@H](Cc1ccccc1)NC(=O)CNC(=O)[C@H](Cc1cnc[nH]1)NC(=O)[C@H](CCCCN)NC(=O)[C@@H](N)CCCN=C(N)N)C(=O)N[C@@H](Cc1ccccc1)C(=O)NCC(=O)N[C@@H](CC(=O)O)C(=O)N[C@@H](Cc1ccc(O)cc1)C(=O)N[C@@H](Cc1ccc(O)cc1)C(=O)N[C@@H](Cc1cnc[nH]1)C(=O)N[C@@H](Cc1ccccc1)C(=O)N[C@@H](Cc1c[nH]c2ccccc12)C(=O)N[C@@H](Cc1cnc[nH]1)C(=O)N[C@@H](CCCN=C(N)N)C(=O)NCC(=O)N[C@H](C(=O)O)C(C)C [RKHGFLNLQGIFGDYYHFWHRGV]
- MIC [13]: > 100 µM
- MIC [10]: > 100 µM
- MIC (Escherichia coli): 4 µM (≈ 11.4 µg/mL)
- MIC [4]: > 100 µM
- MIC [14]: ≥ 100 µM
- MIC [15]: ≥ 100 µM
- MIC [5]: > 100 µM
- MIC (Bacillus subtilis): ≥ 100 µM
